Test in all cases: growth of human tumour cells (NCI), 48 h
Assay [1] relates to HCC-2998 colon.
The test system of assay [2] is KM20L2 colon.
The test system of assay [3] is SNB-19 CNS.
Assay [4] relates to M19-MEL melanoma.
Assay [5] deals with HOP-18 NSCLC.
Assay [6] deals with DMS 273 small cell lung.
Assay [7] deals with XF 498 CNS.
The test system of assay [8] is SNB-78 CNS.
The subject of assay [9] is DLD-1 colon.
The subject of assay [10] is SW-620 colon.
Assay [11] has as its system DMS 114 small cell lung.
Assay [12] deals with LXFL 529 NSCLC.
The subject of assay [13] is OVCAR-4 ovarian.
Assay [14] concerns RXF-631 renal.

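Assay format: 96-well plates, 48-hour exposure. At the TGI there is no net growth.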

With `CS(=O)(=O)c1nc(N)nc2nc[nH]c12`, the TGI in assay [1], in [2], in assay [3], in [4], in [5] and in assay [6] was above 100 µM in each case. In addition, the TGI in [7], in [8], in assay [9], in assay [10], in assay [11] and in assay [12] was above 100 µM throughout. For the same compound, the TGI in assay [13] was above 100 µM.
As to `CC1=C(C)SC(=C2Sc3c(n(C)c(=O)[nH]c3=O)S2)S1`, the TGI in [1], in assay [3], in assay [10] and in [13] was above 100 µM in each case.
As to `CCCCCCCCCCCCCCCCOP(=O)(O)OP(=O)(O)OCC1OC(n2ccc(N)nc2=O)CC1O` (stereo unspecified), the TGI in assay [1], in [3], in assay [10] and in assay [13] was above 100 µM each time.
`CN1C(=O)n2c(nc3ccccc32)C(N=[N+]=[N-])(N=[N+]=[N-])C1=O` (stereo unspecified): the TGI in [1], in assay [2], in assay [14], in assay [3], in [4] and in [5] was above 100 µM each time. Moreover, the TGI in [6], in [7], in assay [8], in assay [9], in assay [10] and in assay [11] was above 100 µM each time. Further, the TGI in assay [12] and in [13] was above 100 µM throughout.
Turning to `CC(C#N)c1cn(S(=O)(=O)c2ccccc2)c2ccccc12` (stereo unspecified), the TGI in [1], in assay [2], in [3], in [4], in assay [6] and in assay [7] was above 100 µM throughout. Moreover, the TGI in assay [9], in assay [10], in [11], in assay [12] and in assay [13] was above 100 µM in each case.
For the compound `O=C(NO)c1cccc(OCc2ccc(Br)cc2)c1`, the TGI in assay [1] is 28.4 µM; in assay [3], above 46.4 µM; in assay [10], above 100 µM; in [13], above 100 µM.
Consider `CCSC(=Nc1ccccc1)SC`, for which the TGI in assay [1], in assay [2], in assay [14], in assay [3], in [4] and in assay [5] was above 100 µM in each case. In addition, the TGI in assay [6], in assay [7], in [8], in assay [9], in assay [10] and in [11] was above 100 µM each time. Besides, the TGI in [12] and in assay [13] was above 100 µM each time.
Regarding `COC(=O)c1cc(NC2OCC(OC(C)=O)C(OC(C)=O)C2OC(C)=O)nc(SC)c1C(=O)OC` (stereo unspecified), the TGI in [1], in assay [3], in assay [10] and in assay [13] was above 100 µM each time.
Regarding `COC(=O)/C=C\c1ccc2c(c1)CC1(C2)Cc2ccc(/C=C/C(=O)OC)cc2C1` (stereo unspecified), the TGI in assay [1] is above 31.6 µM; in assay [3], above 100 µM; in [10], above 100 µM; in [13], above 31.6 µM.
`CCCCCCNC(=O)c1cc(NCc2cc(OC)ccc2OC)ccc1O`: the TGI in assay [1] was 68.4 µM; in [3], above 100 µM; in assay [10], above 100 µM; in assay [13] it was 70.5 µM.
As for `CCc1cc(-c2nsc(=O)o2)c(S(=O)(=O)CC)s1`, the TGI in assay [1], in [3], in assay [10] and in assay [13] was above 100 µM throughout.
As for `O=C(NNC(=S)Nc1ccccc1)C12CC3CC(CC(C3)C1)C2`, the TGI in assay [1] was above 95.7 µM; in assay [3] it was above 100 µM; in assay [10], above 100 µM; in assay [13], above 100 µM.
With `CCOC(=O)C1C(=O)CC(C)(O)C(C(=O)OCC)C1c1ccc(N(C)C)cc1` (stereo unspecified), the TGI in assay [1], in assay [3], in assay [10] and in assay [13] was above 100 µM throughout.
Turning to `CCOC(=O)Cn1c(=O)c2nc(SC)sc2n(-c2ccc(C)cc2)c1=S`, the TGI was above 100 µM in [1], 54.1 µM in assay [3], above 100 µM in assay [10] and 35.2 µM in assay [13].
On to `Cc1cc(S(=O)(=O)Nc2nc(N)n(-c3cnc4ccccc4n3)n2)c(S)cc1Cl`, for which the TGI in assay [1], in assay [3], in assay [10] and in assay [13] was above 100 µM throughout.
Take `O=c1c2cccnc2[nH]c2ccc3scnc3c12`: the TGI in [1], in assay [3], in assay [10] and in [13] was above 10 µM throughout.
With `CCOC(=O)CSc1nc(-c2ccc(OC)cc2)c(C#N)c(=O)[nH]1`, the TGI in assay [1], in assay [3], in [10] and in assay [13] was above 100 µM throughout.
In the case of `COc1ccccc1C1C2=C(COC2=O)OC(C)(C)Oc2cc3c(cc21)OCO3` (stereo unspecified), the TGI in assay [1] was above 100 µM; in assay [3], 58.2 µM; in assay [10] it was above 49.8 µM; in assay [13], above 100 µM.
`COc1cc(-c2c[nH]c3ccccc23)nc(-c2c[nH]c3ccccc23)n1`: the TGI in [1] amounted to 13 µM; in [3] it was 21 µM; in assay [10] it was 20.3 µM; in assay [13], 28.8 µM.
For the compound `CC1(C)C(O)c2ccccc2OC1N1CCN(C2Oc3ccccc3C(O)C2(C)C)CC1` (stereo unspecified), the TGI in assay [1], in assay [3], in assay [10] and in assay [13] was above 100 µM each time.
Turning to `Cc1ccc2c(c1)C(=O)/C(=C1/CCc3ccc(C)cc31)C2`, the TGI in [1], in assay [3], in assay [10] and in [13] was above 100 µM throughout.
With `CCOC(=O)c1sc2nc(SC)nc(Nc3ccc4c(c3)OCCCO4)c2c1N`, the TGI in [1], in assay [3], in [10] and in [13] was above 100 µM each time.
For the compound `COc1ccc(C)c2c1N[C@](C)([C@]1(C)Nc3c(OC)ccc(C)c3C1=O)C2=O`, the TGI in [1], in [3], in [10] and in assay [13] was above 100 µM in each case.
Consider `CC1=CC(C)C(C)N(CCNC(=O)Nc2ccccc2)c2ccccc21` (stereo unspecified), for which the TGI in [1] is 61.1 µM; in assay [3], 85.2 µM; in [10], 83.6 µM; in [13] it was above 100 µM.
As to `CC1CCCOc2ccc(cc2)C=Nc2ccc(cc2)CCc2ccc(cc2)N=Cc2ccc(cc2)OCCC1` (stereo unspecified), the TGI in assay [1], in assay [3], in [10] and in assay [13] was above 100 µM throughout.

The values above are taken from PubChem BioAssay (NCI).
